Patent publication US20190085289A1, “COMPOSITIONS AND METHODS FOR PATHOGEN INACTIVATION OF PLATELETS” (Cerus Corporation, priority 2017, published 2019)

Experiments:
[1] = Stability of S-59 in InterSol PAS under ambient light (HPLC); format: physicochemical; details: S-59 230 μM in InterSol PAS, room temp
Experimental: Initial studies evaluated stability of the pathogen inactivation compound amotosalen (S-59) that was formulated in a platelet additive solution (PAS). A 230 μM solution of psoralen compound S-59 (Irsch et al., Transfus Med Hemother, 38: 19-31 (2011)) was prepared in the commercially available PAS solution InterSol® (Fenwal Inc.) and maintained at room temperature under ambient light conditions. HPLC analysis was performed on samples at times listed in Table 1 for both S-59 and photoproducts. […] S-59 data are shown as both concentration (μM), as well as peak area (S-59 UV) for relative comparison to any photoproducts detected with HPLC (Table 1). Peak D and Peak E photoproducts also were observed by 22 hr and 72 hr, respectively, as well as process impurity decomposition product 4′-HMT, with peak area values indicated (Table 1).

[2] = Stability of S-59 in InterSol PAS protected from ambient light (HPLC); format: physicochemical; details: S-59 230 μM in InterSol PAS, room temp, protected from light
Experimental: Additional studies evaluated stability of the S-59 (amotosalen) pathogen inactivation compound formulated in a platelet additive solution (PAS), but protected from ambient light exposure. A 230 μM solution of S-59 was prepared in the commercially available PAS solution InterSol® (Fenwal Inc.) and maintained at room temperature protected from ambient light conditions. HPLC analysis was performed on samples at times listed in Table 2 for both S-59 and photoproducts.

4′-HMT UV peak area (HPLC) ([1]; 5 hr): 5.624
4′-HMT UV peak area (HPLC) ([1]; 6 hr): 5.090
4′-HMT UV peak area (HPLC) ([1]; 22 hr): 5.125
4′-HMT UV peak area (HPLC) ([1]; 30 hr): 5.334
4′-HMT UV peak area (HPLC) ([1]; 47 hr): 4.954
4′-HMT UV peak area (HPLC) ([1]; 56 hr): 4.742
4′-HMT UV peak area (HPLC) ([1]; 72 hr): 4.839
4′-HMT UV peak area (HPLC) ([1]; 78 hr): 4.793
4′-HMT UV peak area (HPLC) ([1]; T 0): 4.924
4′-HMT UV peak area (HPLC) ([2]; 5.5 hr): 3.7162
4′-HMT UV peak area (HPLC) ([2]; 21.5 hr): 4.3525
4′-HMT UV peak area (HPLC) ([2]; 28.5 hr): 3.8628
4′-HMT UV peak area (HPLC) ([2]; 44 hr): 4.0199
4′-HMT UV peak area (HPLC) ([2]; 45.5 hr): 4.4036
4′-HMT UV peak area (HPLC) ([2]; 53 hr): 4.0582
4′-HMT UV peak area (HPLC) ([2]; 77 hr): 4.4268
4′-HMT UV peak area (HPLC) ([2]; T 0): 3.8849
SMILES: Cc1oc2c(C)c3oc(=O)cc(C)c3cc2c1CO [4′-HMT]
